Assay results taken from ChEMBL document CHEMBL1132032, “3-Acyloxy-2-phenalkylpropyl amides and esters of homovanillic acid as novel vanilloid receptor agonists” (Bioorg Med Chem Lett, 1999).
Activity calls are given as the source filed them. No cut-off for these calls is given here.

Experiments:
[1] = target: T1, Vanilloid receptor (Rattus norvegicus) (UniProt Q9ERZ8+Q9WUD2+O35433); test: Cation influx relative to capsaicin (CAP) in cultured neonatal rat dorsal root ganglia (No response); format: functional
T1 sequence (O35433 whole entry, looked up): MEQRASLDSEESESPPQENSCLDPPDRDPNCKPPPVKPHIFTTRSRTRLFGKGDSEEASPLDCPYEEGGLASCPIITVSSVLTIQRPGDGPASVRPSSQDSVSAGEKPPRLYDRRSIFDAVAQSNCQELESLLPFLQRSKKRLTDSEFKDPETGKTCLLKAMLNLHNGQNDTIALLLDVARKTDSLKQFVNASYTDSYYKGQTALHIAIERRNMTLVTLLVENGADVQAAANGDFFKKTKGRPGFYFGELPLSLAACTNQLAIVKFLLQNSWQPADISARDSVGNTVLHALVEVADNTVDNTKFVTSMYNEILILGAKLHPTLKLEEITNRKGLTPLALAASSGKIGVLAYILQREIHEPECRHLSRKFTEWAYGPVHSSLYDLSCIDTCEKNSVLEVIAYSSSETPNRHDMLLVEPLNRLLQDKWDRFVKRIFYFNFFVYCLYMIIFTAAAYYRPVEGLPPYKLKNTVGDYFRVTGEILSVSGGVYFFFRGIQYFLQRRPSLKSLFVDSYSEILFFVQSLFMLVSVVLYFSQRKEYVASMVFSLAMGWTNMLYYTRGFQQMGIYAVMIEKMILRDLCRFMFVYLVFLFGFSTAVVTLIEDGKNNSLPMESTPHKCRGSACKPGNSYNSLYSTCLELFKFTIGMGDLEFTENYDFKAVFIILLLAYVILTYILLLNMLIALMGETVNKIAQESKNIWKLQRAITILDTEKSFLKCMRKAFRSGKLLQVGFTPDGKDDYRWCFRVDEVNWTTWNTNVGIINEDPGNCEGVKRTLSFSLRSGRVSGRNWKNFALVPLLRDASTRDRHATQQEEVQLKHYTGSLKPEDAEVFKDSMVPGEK
T1 sequence (Q9ERZ8 whole entry, looked up): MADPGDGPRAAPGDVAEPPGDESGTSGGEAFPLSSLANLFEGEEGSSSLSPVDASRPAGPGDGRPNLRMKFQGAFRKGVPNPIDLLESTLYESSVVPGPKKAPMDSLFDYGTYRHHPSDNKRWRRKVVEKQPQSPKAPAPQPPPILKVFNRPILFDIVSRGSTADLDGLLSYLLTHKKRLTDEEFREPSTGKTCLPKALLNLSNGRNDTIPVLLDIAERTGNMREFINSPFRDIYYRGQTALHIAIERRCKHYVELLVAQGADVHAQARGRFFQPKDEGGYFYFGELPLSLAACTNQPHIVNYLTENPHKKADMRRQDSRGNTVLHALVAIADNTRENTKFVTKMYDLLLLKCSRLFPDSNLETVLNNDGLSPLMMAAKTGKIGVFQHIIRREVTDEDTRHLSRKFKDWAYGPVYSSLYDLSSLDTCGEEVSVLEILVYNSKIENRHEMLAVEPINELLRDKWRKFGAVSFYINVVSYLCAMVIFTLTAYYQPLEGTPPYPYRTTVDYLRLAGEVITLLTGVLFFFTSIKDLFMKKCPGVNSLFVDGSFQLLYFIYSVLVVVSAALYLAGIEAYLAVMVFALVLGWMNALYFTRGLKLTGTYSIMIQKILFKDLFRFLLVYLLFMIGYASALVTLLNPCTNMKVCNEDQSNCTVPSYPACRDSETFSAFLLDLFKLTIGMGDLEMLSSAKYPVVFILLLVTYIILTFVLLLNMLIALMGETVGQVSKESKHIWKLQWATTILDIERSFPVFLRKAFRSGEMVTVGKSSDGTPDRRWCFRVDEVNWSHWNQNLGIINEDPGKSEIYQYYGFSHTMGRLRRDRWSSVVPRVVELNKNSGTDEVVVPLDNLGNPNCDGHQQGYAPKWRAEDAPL
T1 sequence (Q9WUD2 whole entry, looked up): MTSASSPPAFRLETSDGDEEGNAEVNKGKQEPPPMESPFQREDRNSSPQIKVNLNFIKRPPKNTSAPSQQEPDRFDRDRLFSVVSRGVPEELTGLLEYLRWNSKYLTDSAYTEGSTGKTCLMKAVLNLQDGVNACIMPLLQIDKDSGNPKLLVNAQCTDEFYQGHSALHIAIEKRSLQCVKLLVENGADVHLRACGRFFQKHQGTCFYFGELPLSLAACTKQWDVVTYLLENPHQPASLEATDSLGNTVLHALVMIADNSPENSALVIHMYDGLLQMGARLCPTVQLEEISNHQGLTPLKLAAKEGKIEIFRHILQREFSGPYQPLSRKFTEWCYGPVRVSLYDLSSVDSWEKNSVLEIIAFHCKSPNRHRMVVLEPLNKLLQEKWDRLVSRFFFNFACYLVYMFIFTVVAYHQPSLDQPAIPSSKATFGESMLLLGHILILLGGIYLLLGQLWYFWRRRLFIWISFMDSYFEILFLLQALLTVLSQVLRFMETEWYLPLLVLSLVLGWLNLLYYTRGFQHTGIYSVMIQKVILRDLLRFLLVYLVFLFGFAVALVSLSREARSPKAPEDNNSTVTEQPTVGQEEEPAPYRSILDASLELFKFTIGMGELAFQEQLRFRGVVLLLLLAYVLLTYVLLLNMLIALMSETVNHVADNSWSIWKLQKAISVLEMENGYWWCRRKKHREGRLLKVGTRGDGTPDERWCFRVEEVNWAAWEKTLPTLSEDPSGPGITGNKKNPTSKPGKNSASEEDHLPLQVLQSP

[2] = target: Transient receptor potential cation channel subfamily V member 1 (Rattus norvegicus, UniProt O35433); test: In vitro binding affinity towards vanilloid receptor by [3H]RTX displacement.
Transient receptor potential cation channel subfamily V member 1, sequence (O35433 whole entry): as the sequence (O35433 whole entry, looked up) above

[3] = target: T1, Vanilloid receptor (Rattus norvegicus); test: Cation influx relative to capsaicin (CAP) in cultured neonatal rat dorsal root ganglia (++ = 10xCAP); format: functional
[4] = target: T1, Vanilloid receptor (Rattus norvegicus); test: Cation influx relative to capsaicin (CAP) in cultured neonatal rat dorsal root ganglia (W = Weaker than CAP); format: functional
[5] = target: T1, Vanilloid receptor (Rattus norvegicus)
Description: Cation influx relative to capsaicin (CAP) in cultured neonatal rat dorsal root ganglia (+++ = 100xCAP)

[6] = target: T1, Vanilloid receptor (Rattus norvegicus); test: Cation influx relative to capsaicin (CAP) in cultured neonatal rat dorsal root ganglia (+ = similar to CAP); format: functional

Row | Cation influx [1] | Ki [2] [µM] | Structure (SMILES) | other results
1 |  | 0.295 | COc1cc(CC(=O)NCC(CCc2ccccc2)COC(=O)C(C)(C)C)ccc1O (stereo unspecified) | Cation influx [3]: Active
2 | inactive | > 100 | COc1cc(CC(=O)OCC(COC(C)=O)Cc2ccccc2)ccc1O (stereo unspecified) | 
3 |  | 19.3 | COc1cc(CC(=O)NCC(COC(C)=O)Cc2ccccc2)ccc1O (stereo unspecified) | Cation influx [4]: Partially active
4 | inactive | > 100 | COc1cc(CC(=O)NCC(COC(C)=O)OCc2ccccc2)ccc1O (stereo unspecified) | 
5 | inactive | > 100 | COc1cc(CC(=O)OCC(COCc2ccccc2)COC(C)=O)ccc1O (stereo unspecified) | 
6 | inactive | 78 | COc1cc(CC(=O)NCC(COCc2ccccc2)COC(C)=O)ccc1O (stereo unspecified) | 
7 |  | 0.404 | COc1cc(CC(=O)NCC(COC(=O)C(C)(C)C)Cc2ccccc2)ccc1O (stereo unspecified) | Cation influx [3]: Active
8 |  | 45.2 | COc1cc(CC(=O)NCC(CCc2ccccc2)COC(C)=O)ccc1O (stereo unspecified) | Cation influx [4]: Partially active

The next lines start with the compound.

Row | Structure (SMILES) | Cation influx [1] | Ki [2] [µM] | other results
9 | COc1cc(CC(=O)OCC(COC(C)=O)OCc2ccccc2)ccc1O (stereo unspecified) | inactive | > 100 | 
10 | COc1cc(CC(=O)NC/C(=C/Cc2ccccc2)COC(C)=O)ccc1O |  | 29.2 | Cation influx [4]: Partially active
11 | COc1cc(CC(=O)NCC(/C=C/C(=O)OC(C)(C)C)Cc2ccccc2)ccc1O (stereo unspecified) |  | 0.48 | Cation influx [3]: Active
12 | COc1cc(CC(=O)OC/C(=C\COCc2ccccc2)COC(C)=O)ccc1O | inactive | > 100 | 
13 | COC(=O)/C=C/C(CNC(=O)Cc1ccc(O)c(OC)c1)Cc1ccccc1 (stereo unspecified) |  | 13.5 | Cation influx [4]: Partially active
14 | C=C(C)[C@]12C[C@@H](C)[C@@]34O[C@](Cc5ccccc5)(O[C@@H]1[C@@H]3C=C(COC(=O)Cc1ccc(O)c(OC)c1)C[C@]1(O)C(=O)C(C)=C[C@@H]41)O2 [RESINIFERATOXIN] |  | 2.3e-05 | Cation influx [5]: Active
15 | COc1cc(CC(=O)NCCCc2ccc(C)c(C)c2)ccc1OCCN [DAVASAICIN] |  | 1.4 | Cation influx [6]: Active
16 | COc1cc(CC(=O)OC/C(=C/COCc2ccccc2)COC(C)=O)ccc1O | inactive | > 100 | 
17 | COc1cc(CC(=O)NC/C(=C\Cc2ccccc2)COC(C)=O)ccc1O |  | 12.9 | Cation influx [4]: Partially active
18 | COc1cc(CC(=O)NC/C(=C\Cc2ccccc2)COC(=O)C(C)(C)C)ccc1O |  | 1.22 | Cation influx [3]: Active
